The structures appear in SMILES notation.

This is an account of results in US10315996B2, “ROR gamma (RORγ) modulators” (LEAD PHARMA HOLDING B.V., priority 2015, dated 2019).

The target of the test is T1, RORγ (Homo sapiens, UniProt P51449).
T1 construct: expressed in transfected cells; host or cells: 293FT cells (Invitrogen), expression vector pFN26A (Promega)
T1 sequence (P51449 269-508 limits assumed): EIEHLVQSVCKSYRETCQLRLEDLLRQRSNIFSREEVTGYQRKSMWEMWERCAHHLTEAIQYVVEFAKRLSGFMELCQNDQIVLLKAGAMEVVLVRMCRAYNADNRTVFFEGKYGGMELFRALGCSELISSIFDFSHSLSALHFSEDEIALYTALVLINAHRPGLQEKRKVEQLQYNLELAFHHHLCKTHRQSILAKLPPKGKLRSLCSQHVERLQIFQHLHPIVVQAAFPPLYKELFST
The test is described as follows: RORγ GAL4 reporter gene assay. The class given is cell-based. The conditions noted are these: inhibition of RORγ activity, GAL4-RORγ-LBD luciferase reporter in 293FT cells, overnight incubation; read-out: mean pIC50 (converted). In short, it runs like this: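 293FT cells were transiently co-transfected with GAL4-DBD–RORγ-LBD (or GAL4-VP16 control) and a 9×UAS luc2P reporter, then plated at 60,000 cells/well. Compound was added at final 0.2% DMSO for 16-24 h at 37 °C, and inhibition was measured by firefly luciferase luminescence.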
In general terms: Reporter assays use an easily measured gene product as a stand-in for the process of interest.

Regarding `Cc1ccc(N(C(=O)c2ccc(NC(=O)Cc3ccc(S(=O)(=O)CC4CC4)cc3)cc2)C(C)(C)C2CCCO2)cc1` (stereo not shown) [Example 133, 4-[2-(4-cyclopropylmethanesulfonylphenyl)acetamido]-N-(4-methylphenyl)-N-[2-(oxolan-2-yl)propan-2-yl]benzamide], the IC50 was not above 100 nM.
For `CC(C)(C)N(C(=O)c1ccc(NC(=O)Cc2ccc(S(=O)(=O)CC3CC3)cc2)c(F)c1)c1ccccc1` [Example 134, N-tert-butyl-4-[2-(4-cyclopropylmethanesulfonylphenyl)acetamido]-3-fluoro-N-phenylbenzamide], the IC50 is not above 10 nM.
To `CC(C)(C1CCCO1)N(C(=O)c1ccc(NC(=O)Cc2ccc(S(=O)(=O)CC3CC3)cc2)cc1)c1ccccc1` (stereo not shown) [Example 135, 4-[2-(4-cyclopropylmethanesulfonylphenyl)acetamido]-N-[2-(oxolan-2-yl)propan-2-yl]-N-phenylbenzamide] belongs not above 100 nM.
As for `O=C(Cc1ccc(S(=O)(=O)CC2CC2)cc1)Nc1ccc(C(=O)N(c2ccccn2)C2CCOC2)cc1` (stereo not shown) [Example 136, 4-[2-(4-cyclopropylmethanesulfonylphenyl)acetamido]-N-(oxolan-3-yl)-N-(pyridin-2-yl)benzamide], the figure is not above 100 nM; as for `O=C(Cc1ccc(S(=O)(=O)CC2CC2)cc1)Nc1ccc(C(=O)N(c2ccccn2)C2CC2)cc1` [Example 137, N-cyclopropyl-4-[2-(4-cyclopropylmethanesulfonylphenyl)acetamido]-N-(pyridin-2-yl)benzamide], not above 100 nM; as for `CC(C)(CO)N(C(=O)c1ccc(NC(=O)Cc2ccc(S(=O)(=O)CC3CC3)cc2)cc1)c1ccccc1` [Example 138, 4-[2-(4-cyclopropylmethanesulfonylphenyl)acetamido]-N-(1-hydroxy-2-methylpropan-2-yl)-N-phenylbenzamide], not above 100 nM.
To `O=C(Cc1ccc(S(=O)(=O)CC2CC2)cc1)Nc1ccc(C(=O)N(c2ccccn2)C2CCC2)cc1` [Example 139, N-cyclobutyl-4-[2-(4-cyclopropylmethanesulfonylphenyl)acetamido]-N-(pyridin-2-yl)benzamide] belongs not above 10 nM; to `O=C(Cc1ccc(S(=O)(=O)CC2CC2)cc1)Nc1ccc(C(=O)N(c2ccccc2)C2CC2)cc1` [Example 140, N-cyclopropyl-4-[2-(4-cyclopropylmethanesulfonylphenyl)acetamido]-N-phenylbenzamide], not above 10 nM; to `O=C(Cc1ccc(S(=O)(=O)CC2CC2)cc1)Nc1ccc(C(=O)N(c2ccccc2)C2CCC2)cc1` [Example 141, N-cyclobutyl-4-[2-(4-cyclopropylmethanesulfonylphenyl)acetamido]-N-phenylbenzamide], not above 10 nM.
Regarding `CC1(N(C(=O)c2ccc(NC(=O)Cc3ccc(S(=O)(=O)CC4CC4)cc3)cc2)c2ccccc2)CC1` [Example 142, 4-[2-(4-cyclopropylmethanesulfonylphenyl)acetamido]-N-(1-methylcyclopropyl)-N-phenylbenzamide], the IC50 was not above 10 nM.
In the case of `O=C(Cc1ccc(S(=O)(=O)CC2CC2)cc1)Nc1ccc(C(=O)N(c2cccnc2)C2CC2)cc1` [Example 143, N-cyclopropyl-4-[2-(4-cyclopropylmethanesulfonylphenyl)acetamido]-N-(pyridin-3-yl)benzamide], the IC50 is not above 100 nM.
To `O=C(Cc1ccc(S(=O)(=O)CC2CC2)cc1)Nc1ccc(C(=O)N(c2ccccc2)C2CC(F)(F)C2)cc1` [Example 144, 4-[2-(4-cyclopropylmethanesulfonylphenyl)acetamido]-N-(3,3-difluorocyclobutyl)-N-phenylbenzamide] belongs not above 10 nM; to `COC(=O)C(C)(C)N(C(=O)c1ccc(NC(=O)Cc2ccc(S(=O)(=O)CC3CC3)cc2)cc1)c1ccccc1` [Example 145, methyl 2-(1-{4-[2-(4-cyclopropylmethanesulfonylphenyl)acetamido]phenyl}-N-phenylformamido)-2-methylpropanoate], not above 10 nM; to `CC(N(C(=O)c1ccc(NC(=O)Cc2ccc(S(=O)(=O)CC3CC3)cc2)cc1)c1ccccc1)C(F)(F)F` (stereo not shown) [Example 146, 4-[2-(4-cyclopropylmethanesulfonylphenyl)acetamido]-N-phenyl-N-(1,1,1-trifluoropropan-2-yl)benzamide], not above 10 nM.
As for `O=C(Cc1ccc(S(=O)(=O)CC2CC2)cc1)Nc1ccc(C(=O)Nc2c(Cl)cccc2Cl)cc1` [Example 147, 4-[2-(4-cyclopropylmethanesulfonylphenyl)acetamido]-N-(2,6-dichlorophenyl)benzamide], the figure is not above 1000 nM.
To `CC(N(C(=O)c1ccc(NC(=O)Cc2ccc(S(=O)(=O)NC3CC3)cc2)cc1)c1ccccc1)C(F)(F)F` (stereo not shown) [Example 148, 4-{2-[4-(cyclopropylsulfamoyl)phenyl]acetamido}-N-phenyl-N-(1,1,1-trifluoropropan-2-yl)benzamide] belongs not above 100 nM.
Take `O=C(Cc1ccc(S(=O)(=O)CC2CC2)cc1)Nc1ccc(C(=O)N(c2ccccc2)C2COC2)cc1` [Example 149, 4-[2-(4-cyclopropylmethanesulfonylphenyl)acetamido]-N-(oxetan-3-yl)-N-phenylbenzamide]: the IC50 was not above 10 nM.
As for `Cc1ccc(N(C(=O)c2ccc(NC(=O)Cc3ccc(S(=O)(=O)CC4CC4)cc3)cc2)C(C)(C)CO)cc1` [Example 153, 4-[2-(4-cyclopropylmethanesulfonylphenyl)acetamido]-N-(1-hydroxy-2-methylpropan-2-yl)-N-(4-methylphenyl)benzamide], the figure is not above 100 nM; as for `Cc1ccc(N(C(=O)c2ccc(NC(=O)Cc3ccc(S(=O)(=O)NC4CC4)cc3)cc2)C(C)(C)CO)cc1` [Example 154, 4-{2-[4-(cyclopropylsulfamoyl)phenyl]acetamido}-N-(1-hydroxy-2-methylpropan-2-yl)-N-(4-methylphenyl)benzamide], not above 100 nM.
To `O=C(Cc1ccc(S(=O)(=O)CC2CC2)nc1)Nc1ccc(C(=O)N(CC(F)(F)F)c2ccccc2)cc1` [Example 155, 4-[2-(6-cyclopropylmethanesulfonylpyridin-3-yl)acetamido]-N-phenyl-N-(2,2,2-trifluoroethyl)benzamide] belongs not above 10 nM.
To `CCN(C(=O)c1ccc(NC(=O)Cc2ccc(S(=O)(=O)CC3CC3)nc2)cc1F)c1ccccc1` [Example 156, 4-[2-(6-cyclopropylmethanesulfonylpyridin-3-yl)acetamido]-N-ethyl-2-fluoro-N-phenylbenzamide] belongs not above 100 nM.
Turning to `CCN(C(=O)c1ccc(NC(=O)Cc2ccc(S(=O)(=O)CC3CC3)nc2)cc1Cl)c1ccccc1` [Example 157, 2-chloro-4-[2-(6-cyclopropylmethanesulfonylpyridin-3-yl)acetamido]-N-ethyl-N-phenylbenzamide], the IC50 was not above 100 nM.
As for `CC(C)(C)N(C(=O)c1ccc(NC(=O)Cc2ccc(S(=O)(=O)CC3CC3)nc2)cc1)c1ccccc1` [Example 158, N-tert-butyl-4-[2-(6-cyclopropylmethanesulfonylpyridin-3-yl)acetamido]-N-phenylbenzamide], the figure is not above 10 nM; as for `CC(C)(C)N(C(=O)c1ccc(NC(=O)Cc2ccc(S(=O)(=O)CC3CC3)nc2)c(F)c1)c1ccccc1` [Example 159, N-tert-butyl-4-[2-(6-cyclopropylmethanesulfonylpyridin-3-yl)acetamido]-3-fluoro-N-phenylbenzamide], not above 10 nM.
As for `CC(C)(C1CCCO1)N(C(=O)c1ccc(NC(=O)Cc2ccc(S(=O)(=O)CC3CC3)nc2)cc1)c1ccccc1` (stereo not shown) [Example 160, 4-[2-(6-cyclopropylmethanesulfonylpyridin-3-yl)acetamido]-N-[2-(oxolan-2-yl)propan-2-yl]-N-phenylbenzamide], the figure is not above 100 nM; as for `Cc1ccc(N(C(=O)c2ccc(NC(=O)Cc3ccc(S(=O)(=O)CC4CC4)nc3)cc2)C(C)(C)CO)cc1` [Example 161, 4-[2-(6-cyclopropylmethanesulfonylpyridin-3-yl)acetamido]-N-(1-hydroxy-2-methylpropan-2-yl)-N-(4-methylphenyl)benzamide], not above 100 nM; as for `CCN(C(=O)c1ccc(NC(=O)Cc2ccc(S(=O)(=O)CC3CC3)cc2)cc1C)c1ccccc1` [Example 162, 4-[2-(4-cyclopropylmethanesulfonylphenyl)acetamido]-N-ethyl-2-methyl-N-phenylbenzamide], not above 100 nM.
As for `Cc1cc(NC(=O)Cc2ccc(S(=O)(=O)CC3CC3)cc2)ccc1C(=O)N(C)c1ccccc1C` [Example 163, 4-[2-(4-cyclopropylmethanesulfonylphenyl)acetamido]-N,2-dimethyl-N-(2-methylphenyl)benzamide], the figure is not above 10 nM.
For the compound `CCN(C(=O)c1ccc(NC(=O)Cc2ccc(S(=O)(=O)CC3CC3)cc2)cc1C)c1cccc(C)c1C` [Example 164, 4-[2-(4-cyclopropylmethanesulfonylphenyl)acetamido]-N-(2,3-dimethylphenyl)-N-ethyl-2-methylbenzamide], the IC50 was not above 10 nM.
To `Cc1cc(NC(=O)Cc2ccc(S(=O)(=O)CC3CC3)cc2)ccc1C(=O)N(C)c1ccccc1F` [Example 165, 4-[2-(4-cyclopropylmethanesulfonylphenyl)acetamido]-N-(2-fluorophenyl)-N,2-dimethylbenzamide] belongs not above 100 nM; to `CCN(C(=O)c1ccc(NC(=O)Cc2ccc(S(=O)(=O)CC3CC3)cc2)cc1C)c1ccccc1Cl` [Example 166, N-(2-chlorophenyl)-4-[2-(4-cyclopropylmethanesulfonylphenyl)acetamido]-N-ethyl-2-methylbenzamide], not above 10 nM.
